Results taken from ChEMBL document CHEMBL4602624, “Discovery of a potent and selective adenylyl cyclase type 8 agonist by docking-based virtual screening” (Bioorg Med Chem Lett, 2020).
Activity calls are given as the source filed them. The calls are words filed in the database; no cut-off is given here.

How the values were obtained:
Type in all cases: cell-based
Adenylate cyclase type 8 [1] = biological target: T1, Adenylate cyclase type 8 (Homo sapiens, UniProt P40145); experiment: Agonist activity at recombinant human AC8 expressed in human HEK293 cells assessed as fold increase in cAMP level at 50 uM by LANCE Ultra cAMP Detection kit method relative to control
T1 sequence (P40145 whole entry): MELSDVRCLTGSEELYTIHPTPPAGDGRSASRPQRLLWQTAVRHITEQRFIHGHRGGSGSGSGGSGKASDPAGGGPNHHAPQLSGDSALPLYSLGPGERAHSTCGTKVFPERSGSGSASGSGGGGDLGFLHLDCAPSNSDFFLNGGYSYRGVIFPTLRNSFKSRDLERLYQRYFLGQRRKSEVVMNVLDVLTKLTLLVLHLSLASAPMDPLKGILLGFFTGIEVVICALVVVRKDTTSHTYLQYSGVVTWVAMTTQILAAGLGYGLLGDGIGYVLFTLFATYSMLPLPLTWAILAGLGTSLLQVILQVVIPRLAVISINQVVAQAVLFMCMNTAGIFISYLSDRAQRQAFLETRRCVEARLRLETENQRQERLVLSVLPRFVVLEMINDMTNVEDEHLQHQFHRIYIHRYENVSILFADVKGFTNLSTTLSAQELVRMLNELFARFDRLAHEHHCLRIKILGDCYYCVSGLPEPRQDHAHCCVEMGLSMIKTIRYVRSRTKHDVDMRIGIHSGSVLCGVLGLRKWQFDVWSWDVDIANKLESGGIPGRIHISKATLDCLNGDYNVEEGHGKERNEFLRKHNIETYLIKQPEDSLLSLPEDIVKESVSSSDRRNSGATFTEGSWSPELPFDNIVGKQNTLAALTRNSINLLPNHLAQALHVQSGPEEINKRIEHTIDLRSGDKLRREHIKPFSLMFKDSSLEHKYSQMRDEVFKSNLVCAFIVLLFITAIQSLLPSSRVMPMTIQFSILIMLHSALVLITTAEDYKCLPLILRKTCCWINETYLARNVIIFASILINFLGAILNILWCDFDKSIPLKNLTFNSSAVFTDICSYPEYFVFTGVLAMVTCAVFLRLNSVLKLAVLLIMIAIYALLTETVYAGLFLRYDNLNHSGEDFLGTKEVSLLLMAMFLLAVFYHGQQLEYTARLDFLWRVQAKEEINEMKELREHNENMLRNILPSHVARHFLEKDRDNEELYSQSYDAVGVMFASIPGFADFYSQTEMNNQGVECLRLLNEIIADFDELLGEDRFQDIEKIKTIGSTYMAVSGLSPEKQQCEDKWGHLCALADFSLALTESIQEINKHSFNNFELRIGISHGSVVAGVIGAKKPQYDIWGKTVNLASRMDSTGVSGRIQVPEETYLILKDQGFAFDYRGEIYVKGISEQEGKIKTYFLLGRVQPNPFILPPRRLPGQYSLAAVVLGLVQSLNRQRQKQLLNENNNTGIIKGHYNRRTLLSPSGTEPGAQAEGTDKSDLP

Adenylate cyclase type 8 [2] = biological target: T1, Adenylate cyclase type 8; experiment: Agonist activity at recombinant human AC8 expressed in human HEK293 cells assessed as fold increase in cAMP level by LANCE Ultra cAMP Detection kit method
[3] = biological target: Adenylate cyclase type 5 (Homo sapiens) (UniProt O95622); experiment: Agonist activity at recombinant human AC5 expressed in human HEK293 cells assessed as increase in cAMP level at 50 uM by LANCE Ultra cAMP Detection kit method
Chain of Adenylate cyclase type 5 (Homo sapiens) (O95622 whole entry, looked up): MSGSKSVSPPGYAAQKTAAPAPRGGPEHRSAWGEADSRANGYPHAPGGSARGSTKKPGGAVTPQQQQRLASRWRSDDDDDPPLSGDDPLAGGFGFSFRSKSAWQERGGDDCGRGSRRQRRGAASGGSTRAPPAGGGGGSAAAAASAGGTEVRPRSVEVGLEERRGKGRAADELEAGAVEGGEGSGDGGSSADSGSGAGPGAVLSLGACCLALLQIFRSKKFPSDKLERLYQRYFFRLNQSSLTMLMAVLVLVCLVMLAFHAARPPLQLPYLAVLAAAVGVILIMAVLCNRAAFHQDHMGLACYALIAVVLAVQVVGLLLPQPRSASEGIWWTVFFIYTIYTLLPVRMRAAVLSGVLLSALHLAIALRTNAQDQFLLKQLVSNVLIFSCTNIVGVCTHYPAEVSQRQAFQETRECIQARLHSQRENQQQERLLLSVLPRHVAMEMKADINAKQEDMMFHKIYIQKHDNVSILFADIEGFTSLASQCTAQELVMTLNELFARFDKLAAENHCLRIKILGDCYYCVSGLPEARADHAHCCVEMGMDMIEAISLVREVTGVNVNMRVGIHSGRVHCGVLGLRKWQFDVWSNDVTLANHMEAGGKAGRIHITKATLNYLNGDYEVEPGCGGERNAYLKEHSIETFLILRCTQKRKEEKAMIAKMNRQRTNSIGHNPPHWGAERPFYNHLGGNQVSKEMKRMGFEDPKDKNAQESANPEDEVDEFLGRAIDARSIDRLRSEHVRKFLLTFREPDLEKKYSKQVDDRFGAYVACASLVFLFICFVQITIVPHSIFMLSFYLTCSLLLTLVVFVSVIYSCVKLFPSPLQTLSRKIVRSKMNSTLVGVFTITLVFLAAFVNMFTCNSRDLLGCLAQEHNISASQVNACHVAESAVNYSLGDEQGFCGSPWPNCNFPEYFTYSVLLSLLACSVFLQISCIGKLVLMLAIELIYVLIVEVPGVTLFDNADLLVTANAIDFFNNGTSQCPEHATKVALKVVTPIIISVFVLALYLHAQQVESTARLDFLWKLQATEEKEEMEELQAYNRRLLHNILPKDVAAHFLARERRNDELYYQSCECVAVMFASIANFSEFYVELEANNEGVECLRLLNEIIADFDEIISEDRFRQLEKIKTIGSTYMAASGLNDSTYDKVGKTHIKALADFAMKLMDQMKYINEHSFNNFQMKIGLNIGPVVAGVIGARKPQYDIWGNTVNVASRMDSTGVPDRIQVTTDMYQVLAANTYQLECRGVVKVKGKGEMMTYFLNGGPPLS

[4] = biological target: Adenylate cyclase type 2 (Homo sapiens) (UniProt Q08462); experiment: Agonist activity at recombinant human AC2 expressed in human HEK293 cells assessed as increase in cAMP level at 50 uM by LANCE Ultra cAMP Detection kit method
Chain of Adenylate cyclase type 2 (Homo sapiens) (Q08462 whole entry): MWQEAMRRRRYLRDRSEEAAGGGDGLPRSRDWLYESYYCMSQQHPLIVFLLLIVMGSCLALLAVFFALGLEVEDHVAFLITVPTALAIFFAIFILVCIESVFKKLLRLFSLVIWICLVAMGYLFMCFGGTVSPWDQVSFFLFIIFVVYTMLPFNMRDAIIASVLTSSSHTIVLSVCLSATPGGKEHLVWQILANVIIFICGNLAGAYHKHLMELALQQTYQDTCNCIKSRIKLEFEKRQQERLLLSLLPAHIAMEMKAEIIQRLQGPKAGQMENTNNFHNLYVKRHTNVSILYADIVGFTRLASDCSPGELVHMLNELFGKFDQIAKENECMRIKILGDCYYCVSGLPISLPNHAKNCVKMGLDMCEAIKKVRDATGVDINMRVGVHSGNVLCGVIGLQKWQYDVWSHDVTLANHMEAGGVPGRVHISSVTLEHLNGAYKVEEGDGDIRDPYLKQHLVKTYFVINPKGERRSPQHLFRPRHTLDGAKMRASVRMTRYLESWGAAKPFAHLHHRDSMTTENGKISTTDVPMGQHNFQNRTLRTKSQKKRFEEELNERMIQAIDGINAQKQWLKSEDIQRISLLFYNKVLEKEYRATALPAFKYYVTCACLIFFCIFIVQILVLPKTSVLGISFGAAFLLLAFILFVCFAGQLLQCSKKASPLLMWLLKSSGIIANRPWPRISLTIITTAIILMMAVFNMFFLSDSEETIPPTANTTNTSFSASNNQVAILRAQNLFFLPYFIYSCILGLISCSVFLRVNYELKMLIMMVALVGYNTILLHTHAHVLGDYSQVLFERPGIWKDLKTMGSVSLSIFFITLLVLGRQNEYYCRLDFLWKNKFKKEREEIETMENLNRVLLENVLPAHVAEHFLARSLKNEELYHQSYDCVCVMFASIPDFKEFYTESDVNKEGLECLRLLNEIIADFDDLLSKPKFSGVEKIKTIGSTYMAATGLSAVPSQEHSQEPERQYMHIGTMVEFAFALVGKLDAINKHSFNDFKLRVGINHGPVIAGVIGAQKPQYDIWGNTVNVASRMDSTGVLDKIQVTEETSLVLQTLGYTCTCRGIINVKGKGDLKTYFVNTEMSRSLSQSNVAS

[5] = biological target: Adenylate cyclase type 1 (Homo sapiens) (UniProt Q08828); experiment: Agonist activity at recombinant human AC1 expressed in human HEK293 cells assessed as increase in cAMP level at 50 uM by LANCE Ultra cAMP Detection kit
Chain of Adenylate cyclase type 1 (Homo sapiens) (Q08828 whole entry, looked up): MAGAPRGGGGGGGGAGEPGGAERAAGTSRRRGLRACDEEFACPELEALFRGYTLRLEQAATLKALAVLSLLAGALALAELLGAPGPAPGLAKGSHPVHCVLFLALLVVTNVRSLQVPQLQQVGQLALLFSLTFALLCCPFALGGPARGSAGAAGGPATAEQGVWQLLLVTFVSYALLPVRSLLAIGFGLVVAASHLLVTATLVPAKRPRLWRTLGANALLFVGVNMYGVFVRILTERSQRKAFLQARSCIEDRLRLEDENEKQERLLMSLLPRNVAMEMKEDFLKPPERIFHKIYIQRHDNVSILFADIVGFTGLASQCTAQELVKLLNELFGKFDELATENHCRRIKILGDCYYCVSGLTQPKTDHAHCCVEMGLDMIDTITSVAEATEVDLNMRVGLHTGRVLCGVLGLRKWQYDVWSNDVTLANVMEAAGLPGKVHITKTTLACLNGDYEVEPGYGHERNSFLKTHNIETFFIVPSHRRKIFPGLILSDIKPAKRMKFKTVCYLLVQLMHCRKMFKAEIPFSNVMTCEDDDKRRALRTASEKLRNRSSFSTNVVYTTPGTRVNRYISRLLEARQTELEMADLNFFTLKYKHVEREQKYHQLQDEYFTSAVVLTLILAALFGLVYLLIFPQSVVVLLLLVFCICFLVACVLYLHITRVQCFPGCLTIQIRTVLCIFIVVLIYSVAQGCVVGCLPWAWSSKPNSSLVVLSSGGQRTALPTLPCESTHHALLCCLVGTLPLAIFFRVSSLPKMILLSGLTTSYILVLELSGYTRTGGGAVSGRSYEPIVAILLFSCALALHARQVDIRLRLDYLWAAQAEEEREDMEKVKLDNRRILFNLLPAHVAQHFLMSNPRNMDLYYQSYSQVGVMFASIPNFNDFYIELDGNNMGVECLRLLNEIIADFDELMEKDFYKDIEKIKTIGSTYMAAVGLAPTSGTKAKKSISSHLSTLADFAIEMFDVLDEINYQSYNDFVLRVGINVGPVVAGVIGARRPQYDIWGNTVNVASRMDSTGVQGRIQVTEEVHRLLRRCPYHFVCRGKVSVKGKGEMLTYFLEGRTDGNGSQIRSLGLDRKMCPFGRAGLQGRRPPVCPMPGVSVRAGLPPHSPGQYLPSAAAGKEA

Row | fold change (FC) (Adenylate cyclase type 8 [1]) | Activity (Adenylate cyclase type 8 [2]) | EC50 (Adenylate cyclase type 8 [2]) [nM] | Activity [3] | Activity [4] | Activity [5] | Structure (SMILES)
1 | 33 | Dose-dependent effect | 105 | inactive | inactive | inactive | CCOC(=O)C1(Cc2ccc(Cl)cc2Cl)C(=O)Nc2ccccc21 (stereo not drawn)
2 | 35 |  | 93.7 |  |  |  | C=C[C@@]1(C)CC(=O)[C@]2(O)[C@@]3(C)[C@@H](O)CCC(C)(C)[C@@H]3[C@H](O)[C@H](OC(C)=O)[C@@]2(C)O1 [COLFORSIN]
